Reference: US5990179A, “Composition and method of enhancing electrotransport agent delivery” (ALZA Corporation, priority 1995, dated 1999)

Key:
[1] = transdermal flux of lidocaine and epinephrine from gel formulations 14 and 15 (Example 3); settings: formulation 14 (pH 3.68) vs 15 (pH 6.42); samples at 10, 30, 60 and 90 minutes
Protocol: The formulation 14 and 15 gels were subjected to transdermal flux experiments using heat stripped chest and breast skin from human cadavers using the electrotransport permeation cell described in Example 2 and FIG. 3. Measurements were taken from the receptor compartment of the cell at 10 minutes, 30 minutes, 60 minutes, and 90 minutes after start of application of electrotransport current.

[2] = pH of lidocaine donor solutions of varying base:salt ratio (Example 1); format: physicochemical
Protocol: Two identical experiments were conducted at pHs 4.95 and 7.35, one at pH 6.85, and three at pH 6.25.

SMILES | transdermal flux, formulation 14 versus 15 [1] | pH ([2]; 0 mmoles lidocaine base, 199 mmoles lidocaine HCl) | pH ([2]; 2.1 mmoles lidocaine base, 195 mmoles lidocaine HCl) | pH ([2]; 6.0 mmoles lidocaine base, 191 mmoles lidocaine HCl) | pH ([2]; 20.3 mmoles lidocaine base, 179 mmoles lidocaine HCl)
CNC[C@H](O)c1ccc(O)c(O)c1 [epinephrine] | did not have a significant statistical difference between formulation 14 and 15 |  |  |  | 
CCN(CC)CC(=O)Nc1c(C)cccc1C [lidocaine] |  | 4.95 | 6.25 | 6.85 | 7.35
